Key:
Type in all cases: biochemical
[1] = target: T1, CYP2C9 (Homo sapiens, UniProt P11712); experiment: Cocktail assay for CYPs, diclofenac 4′-hydroxylation (CYP2C9), human liver microsomes; conditions: 5 μM diclofenac, 0.1 mg/mL human liver microsomes, 10 min at 37° C.; read-out: CYP IC50 (nM) 2C9
T1 construct: 0.1 mg/mL protein human liver microsomes (BD Gentest); tissue BD Gentest; host or cells: human liver microsomes
Procedure, shortened: (§1)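 Pooled human liver microsomes (0.1 mg/mL) with probe cocktail incl. 5 μM diclofenac (CYP2C9) and 30 μM mephenytoin (CYP2C19), 1 mM NADPH, pH 7.4 phosphate buffer, 10 min at 37° C. Metabolites quantified by LC/MS/MS against internal standard; % inhibition versus no-inhibitor control, IC50 by non-linear regression.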

[2] = target: T2, CYP2D6 (Homo sapiens, UniProt P10635); experiment: Cocktail assay for CYPs, dextromethorphan O-demethylation (CYP2D6), human liver microsomes; conditions: 5 μM dextromethorphan, 0.1 mg/mL human liver microsomes, 10 min at 37° C.; read-out: CYP IC50 (nM) 2D6
T2 construct: 0.1 mg/mL protein human liver microsomes (BD Gentest); tissue BD Gentest; host or cells: human liver microsomes
T2 sequence (P10635 whole entry): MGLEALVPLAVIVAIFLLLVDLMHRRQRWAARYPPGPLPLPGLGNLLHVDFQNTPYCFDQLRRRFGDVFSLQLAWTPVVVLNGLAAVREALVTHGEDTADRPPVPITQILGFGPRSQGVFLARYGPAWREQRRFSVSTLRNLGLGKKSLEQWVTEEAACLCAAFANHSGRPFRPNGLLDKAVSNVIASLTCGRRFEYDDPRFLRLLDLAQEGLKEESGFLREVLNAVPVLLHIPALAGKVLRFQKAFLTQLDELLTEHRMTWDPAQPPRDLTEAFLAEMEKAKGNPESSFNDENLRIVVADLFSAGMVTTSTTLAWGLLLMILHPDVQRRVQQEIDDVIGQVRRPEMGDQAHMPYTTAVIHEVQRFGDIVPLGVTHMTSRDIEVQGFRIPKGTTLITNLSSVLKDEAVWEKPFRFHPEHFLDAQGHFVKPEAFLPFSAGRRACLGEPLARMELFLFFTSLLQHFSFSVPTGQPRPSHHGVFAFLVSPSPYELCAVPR
Procedure, shortened: (§2)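 Pooled human liver microsomes (0.1 mg/mL) with a probe cocktail of 10 μM phenacetin, 5 μM dextromethorphan and 2 μM midazolam plus NADPH, pH 7.4, 10 min at 37° C. Each metabolite was quantified by LC/MS/MS against a tolbutamide internal standard. IC50 came from % inhibition at 6 concentrations (e.g. 0.0032–10 μM) by non-linear regression.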

[3] = target: T3, CYP3A4 (Homo sapiens, UniProt P08684); experiment: Cocktail assay for CYPs, midazolam 1′-hydroxylation (CYP3A4), human liver microsomes; parameters: 0.1 mg/mL protein human liver microsomes (BD Gentest); tissue BD Gentest; host or cells: human liver microsomes; conditions: 2 μM midazolam, 0.1 mg/mL human liver microsomes, 10 min at 37° C.; read-out: CYP IC50 (nM) 3A4 (MDZ)
Procedure, shortened: as §2
Target sequence in this assay (P08684 whole entry): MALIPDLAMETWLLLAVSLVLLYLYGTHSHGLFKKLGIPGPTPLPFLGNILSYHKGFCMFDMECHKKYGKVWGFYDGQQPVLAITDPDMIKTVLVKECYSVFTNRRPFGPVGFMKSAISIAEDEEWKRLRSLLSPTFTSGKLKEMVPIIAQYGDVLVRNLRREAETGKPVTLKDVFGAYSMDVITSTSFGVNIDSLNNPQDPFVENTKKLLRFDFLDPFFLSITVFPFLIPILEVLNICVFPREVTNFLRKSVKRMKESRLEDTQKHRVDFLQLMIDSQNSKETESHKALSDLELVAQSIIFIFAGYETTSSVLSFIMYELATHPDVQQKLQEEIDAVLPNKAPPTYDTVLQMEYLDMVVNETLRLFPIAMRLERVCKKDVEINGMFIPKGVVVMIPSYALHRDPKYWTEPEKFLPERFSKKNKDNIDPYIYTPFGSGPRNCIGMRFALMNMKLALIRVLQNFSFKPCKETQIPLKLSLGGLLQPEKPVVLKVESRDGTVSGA

[4] = target: T4, CYP1A2 (Homo sapiens, UniProt P05177); experiment: Cocktail assay for CYPs, phenacetin O-deethylation (CYP1A2), human liver microsomes; conditions: 10 μM phenacetin, 0.1 mg/mL human liver microsomes, 10 min at 37° C.; read-out: CYP IC50 (nM) 1A2
T4 construct: 0.1 mg/mL protein human liver microsomes (BD Gentest); tissue BD Gentest; host or cells: human liver microsomes
T4 sequence (P05177 1-516): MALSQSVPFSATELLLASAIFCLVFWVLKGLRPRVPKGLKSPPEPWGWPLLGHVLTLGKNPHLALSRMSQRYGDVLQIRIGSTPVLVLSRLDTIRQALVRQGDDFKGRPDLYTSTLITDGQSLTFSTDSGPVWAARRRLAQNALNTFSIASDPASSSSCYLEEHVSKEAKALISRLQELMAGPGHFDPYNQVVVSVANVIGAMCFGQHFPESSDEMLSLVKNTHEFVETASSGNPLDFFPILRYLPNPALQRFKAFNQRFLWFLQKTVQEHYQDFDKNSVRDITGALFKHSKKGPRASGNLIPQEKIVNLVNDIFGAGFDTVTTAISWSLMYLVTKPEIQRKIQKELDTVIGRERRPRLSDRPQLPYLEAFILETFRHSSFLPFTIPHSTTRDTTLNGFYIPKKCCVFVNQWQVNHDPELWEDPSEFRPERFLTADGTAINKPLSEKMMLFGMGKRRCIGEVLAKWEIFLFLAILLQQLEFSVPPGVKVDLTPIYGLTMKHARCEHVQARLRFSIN
Procedure, shortened: as §2

[5] = target: T3, CYP3A4; experiment: IC50 vs CYP3A by inhibition of lopinavir metabolism in human liver microsomes; parameters: 0.01 mg/mL protein human liver microsomes (BD Gentest); tissue BD Gentest; host or cells: human liver microsomes; conditions: 1.5 μM lopinavir, 0.01 mg/mL human liver microsomes, 8 min at 37° C.; read-out: CYP IC50 (nM) 3A4 (LPV)
Procedure, shortened: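 Human liver microsomes (0.01 mg/mL) with 1.5 μM lopinavir, 1 mM NADPH, 3.3 mM MgCl2 in 100 mM potassium phosphate pH 7.4, 8 min at 37 °C, six compound concentrations. Summed M2/M3/M4 hydroxy metabolites quantified by LC/MS/MS against tolbutamide; % inhibition normalised between no-inhibitor and 5 μM ketoconazole controls, IC50 by non-linear regression.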
Target sequence in this assay (P08684 2-503): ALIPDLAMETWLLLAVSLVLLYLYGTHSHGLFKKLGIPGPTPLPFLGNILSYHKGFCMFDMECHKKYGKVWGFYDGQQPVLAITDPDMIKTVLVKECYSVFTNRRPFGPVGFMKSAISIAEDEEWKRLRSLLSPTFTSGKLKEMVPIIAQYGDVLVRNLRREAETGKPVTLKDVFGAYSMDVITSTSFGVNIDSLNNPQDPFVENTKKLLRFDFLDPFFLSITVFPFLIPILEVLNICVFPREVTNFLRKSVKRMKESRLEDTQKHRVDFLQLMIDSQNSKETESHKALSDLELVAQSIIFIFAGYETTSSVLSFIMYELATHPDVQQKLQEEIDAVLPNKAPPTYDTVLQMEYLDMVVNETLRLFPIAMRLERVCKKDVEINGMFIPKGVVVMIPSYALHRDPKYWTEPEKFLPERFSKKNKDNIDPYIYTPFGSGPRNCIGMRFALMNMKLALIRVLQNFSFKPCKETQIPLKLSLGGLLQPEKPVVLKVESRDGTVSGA

[6] = target: T5, CYP2C19 (Homo sapiens, UniProt P33261); experiment: Cocktail assay for CYPs, mephenytoin 4′-hydroxylation (CYP2C19), human liver microsomes; conditions: 30 μM mephenytoin, 0.1 mg/mL human liver microsomes, 10 min at 37° C.; read-out: CYP IC50 (nM) 2C19
T5 construct: 0.1 mg/mL protein human liver microsomes (BD Gentest); tissue BD Gentest; host or cells: human liver microsomes
T5 sequence (P33261 whole entry): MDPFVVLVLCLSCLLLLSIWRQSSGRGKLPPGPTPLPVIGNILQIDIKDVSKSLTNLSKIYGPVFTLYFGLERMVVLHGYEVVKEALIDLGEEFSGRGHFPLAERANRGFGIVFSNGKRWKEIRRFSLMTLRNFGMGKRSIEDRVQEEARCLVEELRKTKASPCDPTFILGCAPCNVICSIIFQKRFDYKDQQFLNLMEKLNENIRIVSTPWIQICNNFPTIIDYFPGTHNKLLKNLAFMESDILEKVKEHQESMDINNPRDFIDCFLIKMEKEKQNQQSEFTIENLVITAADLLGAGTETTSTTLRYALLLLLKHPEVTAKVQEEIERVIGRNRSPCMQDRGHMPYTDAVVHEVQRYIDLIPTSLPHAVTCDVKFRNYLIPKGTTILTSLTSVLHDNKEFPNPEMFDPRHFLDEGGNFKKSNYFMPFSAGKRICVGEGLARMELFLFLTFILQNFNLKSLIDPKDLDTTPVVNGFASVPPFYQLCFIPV
Procedure, shortened: as §1

T1 sequence (P11712 whole entry): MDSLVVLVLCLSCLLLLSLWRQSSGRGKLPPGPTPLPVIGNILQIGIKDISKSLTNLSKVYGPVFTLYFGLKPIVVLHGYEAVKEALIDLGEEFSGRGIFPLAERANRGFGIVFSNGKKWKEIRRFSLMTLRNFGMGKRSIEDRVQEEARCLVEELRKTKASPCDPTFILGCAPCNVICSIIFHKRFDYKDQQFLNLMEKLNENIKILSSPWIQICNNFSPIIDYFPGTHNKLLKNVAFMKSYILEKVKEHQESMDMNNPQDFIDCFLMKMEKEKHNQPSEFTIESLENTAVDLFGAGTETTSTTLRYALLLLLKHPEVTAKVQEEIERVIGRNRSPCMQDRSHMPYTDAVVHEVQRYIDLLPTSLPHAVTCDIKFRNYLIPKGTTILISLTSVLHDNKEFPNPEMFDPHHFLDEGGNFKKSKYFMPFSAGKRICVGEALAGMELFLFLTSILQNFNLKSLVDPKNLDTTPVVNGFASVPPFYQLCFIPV

SMILES | IC50 [1] | IC50 [2] | IC50 [3] | IC50 [4] | IC50 [5] | IC50 [6]
CC(=O)Nc1ncc(S(=O)(=O)NCc2ccc(-c3cncn3CCc3ccc(F)cc3)cn2)s1 [Compound 11, N-(5-(N-((5-(1-(4-fluorophenethyl)-1H-imidazol-5-yl)pyridin-2-yl)methyl)sulfamoyl)thiazol-2-yl)acetamide] | 7470 nM | 8390 nM | 197 nM | > 10000 nM | > 100 nM | 912 nM
CC(=O)Nc1ncc(S(=O)(=O)NCc2ccc(-c3cncn3CCc3ccc(F)cc3)cc2)s1 [Compound 12, N-(5-(N-(4-(1-(4-fluorophenethyl)-1H-imidazol-5-yl)benzyl)sulfamoyl)thiazol-2-yl)acetamide] | 49 nM | 675 nM | 8.7 nM | 2400 nM | 5 nM | 300 nM
CC(=O)Nc1ncc(S(=O)(=O)NCc2cccc(-c3cncn3CCc3ccc(F)cc3)c2)s1 [Compound 13, N-(5-(N-(3-(1-(4-fluorophenethyl)-1H-imidazol-5-yl)benzyl)sulfamoyl)thiazol-2-yl)acetamide] | 65 nM | 348 nM | 5.9 nM | 99 nM | 5.3 nM | 357 nM
O=S(=O)(NCCc1ccccc1-c1cncn1CCc1ccc(F)cc1)c1cccnc1 [Compound 14, N-(2-(1-(4-fluorophenethyl)-1H-imidazol-5-yl)phenethyl)pyridine-3-sulfonamide] | 7410 nM | 1100 nM | 137 nM | > 10000 nM | 54 nM | > 10000 nM
CC(=O)Nc1ncc(S(=O)(=O)N2Cc3cccc(-c4cncn4CCc4ccc(F)cc4)c3C2)s1 [Compound 15, N-(5-((4-(1-(4-fluorophenethyl)-1H-imidazol-5-yl)isoindolin-2-yl)sulfonyl)thiazol-2-yl)acetamide] | 1230 nM | 1400 nM | 6.4 nM | > 10000 nM | 8 nM | 155 nM
CN1CCN(c2ncc(S(=O)(=O)N3Cc4cccc(-c5cncn5CCc5ccc(F)cc5)c4C3)s2)CC1 [Compound 16, 5-((4-(1-(4-fluorophenethyl)-1H-imidazol-5-yl)isoindolin-2-yl)sulfonyl)-2-(4-methylpiperazin-1-yl)thiazole] | 486 nM | 360 nM | 13.2 nM | 3100 nM | 9.5 nM | 1260 nM
O=S(=O)(NCc1ccccc1-c1cncn1CCc1ccc(F)cc1)c1cccnc1 [Compound 17, N-(2-(1-(4-fluorophenethyl)-1H-imidazol-5-yl)benzyl)pyridine-3-sulfonamide] | > 10000 nM | 5200 nM | 10.5 nM | > 10000 nM | 35.9 nM | > 10000 nM
CC(=O)Nc1ncc(S(=O)(=O)NCc2ccccc2-c2cncn2CCc2ccc(F)cc2)s1 [Compound 18, N-(5-(N-(2-(1-(4-fluorophenethyl)-1H-imidazol-5-yl)benzyl)sulfamoyl)thiazol-2-yl) acetamide] | > 10000 nM | 7180 nM | 15.8 nM | > 10000 nM | 18.6 nM | 2930 nM
O=S(=O)(NCc1ccccc1-c1cncn1CCc1ccc(F)cc1)c1cnc(N2CCN3C[C@H](O)C[C@H]3C2)s1 [Compound 19, N-(2-(1-(4-fluorophenethyl)-1H-imidazol-5-yl)benzyl)-2-((7R,8aS)-7-hydroxyhexahydropyrrolo[1,2-a]pyrazin-2 (1H)-yl)thiazole-5-sulfonamide] | 6270 nM | 3200 nM | 9.5 nM | > 10000 nM | 16.4 nM | > 10000 nM
COCCn1cncc1-c1ccccc1C1CCCN1S(=O)(=O)c1cnc(NC(C)=O)s1 (stereo not drawn) [Compound 20, N-(5-((2-(2-(1-(2-methoxyethyl)-1H-imidazol-5-yl)phenyl)pyrrolidin-1-yl)sulfonyl)thiazol-2-yl)acetamide] | > 10000 nM | > 10000 nM | 38.5 nM | > 10000 nM | ≥ 100 nM | > 10000 nM
CC(=O)Nc1ncc(S(=O)(=O)N2CCCC2c2ccccc2-c2cncn2CCc2ccc(F)cc2)s1 (stereo not drawn) [Compound 21, N-(5-((2-(2-(1-(4-fluorophenethyl)-1H-imidazol-5-yl)phenyl)pyrrolidin-1-yl)sulfonyl)thiazol-2-yl) acetamide] | 4410 nM | 4050 nM | 13.7 nM | 5890 nM | 5.6 nM | 4190 nM
Cn1cncc1-c1ccccc1C1CCCN1S(=O)(=O)c1cnc(N2CCN3C[C@H](O)C[C@H]3C2)s1 (stereo partly drawn) [Compound 24, (7R,8aS)-2-(5-((2-(2-(1-methyl-1H-imidazol-5-yl)phenyl)pyrrolidin-1-yl)sulfonyl)thiazol-2-yl)octahydro-pyrrolo[1,2-a] pyrazin-7-ol] | > 10000 nM | > 10000 nM | 32.5 nM | > 10000 nM | 29.5 nM | > 10000 nM
O=S(=O)(c1cnc(Cl)c(Br)c1)N1CCCC1c1ccccc1-c1cncn1CCc1ccc(F)cc1 (stereo not drawn) [Compound 25, 3-bromo-2-chloro-5-((2-(2-(1-(4-fluoro-phenethyl)-1H-imidazol-5-yl)phenyl)pyrrolidin-1-yl)sulfonyl) pyridine] | 2220 nM | 2140 nM | 50.3 nM | 9490 nM | 23 nM | 1890 nM
O=S(=O)(c1ccc2c(c1)OCO2)N1CCCC1c1ccccc1-c1cncn1CCc1ccc(F)cc1 (stereo not drawn) [Compound 26, 5-(2-(1-(benzo[d][1,3]dioxol-5-ylsulfonyl)pyrrolidin-2-yl)phenyl)-1-(4-fluorophenethyl)-1H-imidazole] | 1160 nM | 1650 nM | 3.8 nM | 5020 nM | 1 nM | 1360 nM
COc1ccc(OC)c(S(=O)(=O)N2CCCC2c2ccccc2-c2cncn2CCc2ccc(F)cc2)c1 (stereo not drawn) [Compound 27, 5-(2-(1-((2,5-dimethoxyphenyl)sulfonyl)pyrrolidin-2-yl)phenyl)-1-(4-fluorophenethyl)-1H-imidazole] | 1910 nM | 3480 nM | 36.1 nM | 2650 nM | 41 nM | 3800 nM
O=S(=O)(c1ccc(N2CCOCC2)nc1)N1CCCC1c1ccccc1-c1cncn1CCc1ccc(F)cc1 (stereo not drawn) [Compound 29, 4-(5-((2-(2-(1-(4-fluorophenethyl)-1H-imidazol-5-yl)phenyl)pyrrolidin-1-yl)sulfonyl)pyridin-2-yl)morpholine] | 1860 nM | 2930 nM | 8.3 nM | 3820 nM | 7.6 nM | 3260 nM
CC(=O)Nc1ncc(S(=O)(=O)N2CCCC2c2ccccc2-c2cncn2C)s1 (stereo not drawn) [Compound 30, N-(5-((2-(2-(1-methyl-1H-imidazol-5-yl)phenyl)pyrrolidin-1-yl)sulfonyl)thiazol-2-yl) acetamide] | > 10000 nM | > 10000 nM | 18.8 nM | > 10000 nM | 37.7 nM | > 10000 nM

Source: patent US9975888B2, “Aryl linked imidazole and triazole derivatives and methods of use thereof for improving the pharmacokinetics of a drug” (MERCK SHARP & DOHME CORP., priority 2013, dated 2018)
